Results from patent US20130005710A1, “AMINOPYRIDINE DERIVATIVE” (priority 2009, published 2013).

Assays:
rat mixed glial culture = assay: Neurogenesis promoting effect in rat mixed glial culture (neuronal differentiation, beta-tubulin III ELISA); assay type: cell-based; conditions: Rattus norvegicus, 72 h, 1 μM compound + rhIGF-1 100 ng/ml, 3 days; control (only rhIGF-1) = 100%; absorbance 450 nm; read-out: Ratio of absorbance of compound-supplemented group to control (%)
Method: The hippocampus and the cerebral cortex were excised from each of 3-day-old SD rats. A cell suspension was prepared therefrom using a neuron dispersion kit (Sumitomo Bakelite Co., Ltd., MB-X9901) and inoculated at concentration of 10^5 cells/well to a 96-well plate coated with type I collagen (AGC Techno Glass Co., Ltd., 4860-010). The cells were cultured in a growth medium (D-MEM/F12 containing 10% FBS and PS) at 37° C. for 4 days under 5% CO2 conditions.
After the culture, the medium was replaced by a differentiation medium (D-MEM/F12 containing PS), and rhIGF-1 (R&D Systems, 291-G1-250, final concentration: 100 ng/ml) and 1 μM compound were added thereto. The cells were further cultured for 3 days. The cultured cells were fixed in 4% paraformaldehyde-PBS (Muto Pure Chemicals Co., Ltd.), subjected to membrane permeation treatment with 0.1% Triton X-100 PBS, and blocked with Block Ace solution (DS Pharma Biomedical Co., Ltd., UK-B80). Anti-neuron-specific class III beta-tubulin Antibody (R&D Systems, MAB1195, clone Tuj-1) was diluted 1000-fold and used as a primary antibody. Anti-Mouse Ig, HRP-Linked F(ab′)2 Fragment Sheep (GE Healthcare, NA9310) was diluted 10000-fold and used as a secondary antibody. A plate washer (BIO-TEK INSTRUMENTS ELX405) was used in washing operation. TMB Microwell Peroxidase Substrate System (Kirkegaard & Perry Laboratories, 50-76-00) was used in color reaction, which was performed for 10 minutes and stopped by addition of 1 M phosphoric acid. Absorbance at 450 nm was measured using a plate reader (Labsystems Multiskan BICHROMATIC).
The rate of increase in the absorbance of the compound-supplemented group (compound+rhIGF-1) relative to that of a compound-unsupplemented group (control, only rhIGF-1) as 100% was determined in terms of % control.

Tg2576 mice = assay: Cognitive function improving effect in novel object recognition test; assay type: in vivo, mouse; conditions: 10 mg/kg/day orally for 3 consecutive weeks, female Tg2576 mice; recovery ratio relative to wild type and vehicle
Method: Eight- to 9-month-old female Tg2576 mice were used, and wild-type littermates were used as control mice. All the mice were raised in a room having a temperature of 23±3° C. and 12-hour light/dark cycles (light phase: 7 a.m. to 7 p.m.) and allowed to freely take food (Oriental Yeast Co., Ld.) and water.
The body weights and blood glucose levels of the Tg2576 mice were measured, and these mice were divided (n=11-15) so that there was no difference among groups. 10 mg/kg/day compound or vehicle (0.5% methylcellulose solution, Wako Pure Chemical Industries, Ltd.) was orally administered to each mouse for 3 consecutive weeks. The following novel object recognition test was conducted (acquisition trial and retention trial were carried under blind): 4 or 5 mice in one cage were placed in a box of 30×30×30 cm and acclimatized for 30 minutes in the absence of objects. On the next day, two identical objects were placed in diagonally opposite corners of the box. The mice were placed in the box, and the time spent exploring the objects for 5 minutes was recorded (acquisition trial). 24 hours later, one of the objects was in turn replaced by a novel one, and the same test as the acquisition trial was conducted (retention trial). During the test, places were appropriately changed between the two objects to minimize environmental/behavioral psychological factors. The ratio of the time spent exploring the novel object to the whole exploring time was calculated as an index showing cognitive functions and used as preference index (PI). Furthermore, a recovery ratio was calculated according to the following formula:
[Recovery ratio]=[[PI of Tg2576 mice treated by each compound]−[PI of Tg2576 mice treated by vehicle]]/[[PI of wild type mice]−[PI of Tg2576 mice treated by vehicle]]×100(%).
In this context, individuals that explored neither of the objects in the acquisition trial and the retention trial were excluded from this test.

Akt = Akt protein degradation inhibitory effect in rat mixed glial culture (Western blot); assay type: cell-based; conditions: 1 μM compound + rhIGF-1 100 ng/ml, 10 minutes; unsupplemented = 100%, only rhIGF-1 = 0%; Akt corrected with ERK
Method: The mixed glial cells used in Experimental Example 1 were inoculated at a concentration of 4×10^6 cells/well to a 6-well plate coated with type I collagen (AGC Techno Glass Co., Ltd.). The cells were cultured in a growth medium (D-MEM/F12 containing 10% FES and PS) at 37° C. for 4 days under 5% CO2 conditions. Then, the medium was replaced by a serum-free medium (D-MEM/F12 containing PS), and the cells were cultured at 37° C. for 4 days under 5% CO2 conditions to remove serum.
Next, rhIGF-1 (R&D Systems, 291-G1-250, final concentration: 100 ng/ml) and 1 μM compound were added thereto and reacted for 10 minutes in a temperature-controlled water bath set to 37° C. […]
Proteins were collected from the cell extracts using trichloroacetic acid and quantified according to the Lowry method. […] The cell extracts were diluted with RIPA so that the protein levels were constant among the test solutions on the basis of the measured values (10 μg/lane). […] Bands were detected using ImmunoStar reagent (Wako Pure Chemical Industries, Ltd., 291-55203) and an X-ray film. The results were quantified using GS-800 Calibrated Densitometer manufactured by Bio-Rad Laboratories, Inc., and band intensity was digitized by multiplying the absorbance of the Akt- or ERK-1&2-derived band by an area. […]

SMILES | activity at 1 µM (rat mixed glial culture) [%] | Preference index (% recovery) (Tg2576 mice) [%] | Akt degradation inhibitory rate (%) (Akt)
COc1ccc(N2CCN(c3ccc(F)cc3)CC2)c(-c2ccc(N(C)C)cc2)n1 [Example 12, 4-{3-[4-(4-fluorophenyl)piperazin-1-yl]-6-methoxypyridin-2-yl}-N,N-dimethylaniline] | 345 | 70.3 | –
COc1ccc(N2CCN(c3ccc(OC)nc3-c3ccc(N(C)C)cc3)CC2)cc1 [Example 19, 4-{6-methoxy-3-[4-(4-methoxyphenyl)piperazin-1-yl]pyridin-2-yl}-N,N-dimethylaniline] | 263 | 118.2 | 97
COc1ccc(N2CCN(c3ccc(C)cc3)CC2)c(-c2ccc(N(C)C)cc2)n1 [Example 25, 4-{6-methoxy-3-[4-(4-methylphenyl)piperazin-1-yl]pyridin-2-yl}-N,N-dimethylaniline] | 276 | 97.0 | 140
CCOc1ccc(-c2nc(OC)ccc2N2CCN(c3ccc(OC)cc3)CC2)cc1 [Example 55, 1-[2-(4-ethoxyphenyl)-6-methoxypyridin-3-yl]-4-(4-methoxyphenyl)piperazine] | 316 | 19.8 | –
COc1ccc(N2CCN(c3ccc(OC)nc3-c3ccc(N4CCOCC4)cc3)CC2)cc1 [Example 174, 4-(4-{6-methoxy-3-[4-(4-methoxyphenyl)piperazin-1-yl]pyridin-2-yl}phenyl)morpholine] | 390 | – | –
